# Assay results: PubChem BioAssay (NCI)
#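 Briefly, cells in 96-well plates were exposed to five compound concentrations for 48 h, and endpoints were estimated by linear interpolation. TGI is the concentration that stops growth completely.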
# Key:
# Assay in all cases: NCI anticancer screen, dose series, 48 h
# [1] = test system: SK-MEL-28 melanoma
# [2] = test system: K-562 leukemia
# [3] = test system: A498 renal
# [4] = test system: 786-0 renal
# [5] = test system: RPMI-8226 leukemia
# [6] = test system: OVCAR-4 ovarian
# [7] = test system: SK-MEL-2 melanoma
# [8] = test system: A549 NSCLC
# [9] = test system: BT-549 breast
# [10] = test system: M14 melanoma
# [11] = test system: NCI-H23 lung
# [12] = test system: OVCAR-5 ovarian
# [13] = test system: SK-MEL-5 melanoma
# [14] = test system: UACC-257 melanoma
# [15] = test system: PC-3 prostate
# [16] = test system: OVCAR-8 ovarian
# [17] = test system: IGROV1 ovarian
# [18] = test system: TK-10 renal
# [19] = test system: MDA-MB-435
# [20] = test system: ACHN renal
# [21] = test system: MDA-MB-231 breast
# [22] = test system: SNB-19 CNS
# [23] = test system: NCI-H460 lung
# [24] = test system: HCC-2998 colon
# [25] = test system: SF-295 CNS
# [26] = test system: HOP-62 NSCLC
# [27] = test system: HOP-92 NSCLC
# [28] = test system: T-47D breast
# [29] = test system: DU-145 prostate
# [30] = test system: MOLT-4 leukemia
# [31] = test system: EKVX NSCLC
# [32] = test system: COLO 205 colon
# [33] = test system: HCT-15 colon
# [34] = test system: CAKI-1 renal
# [35] = test system: UO-31 renal
# [36] = test system: SF-268 CNS
# [37] = test system: MDA-N
# [38] = test system: SN12C renal
# [39] = test system: HCT-116 colon
# [40] = test system: SK-OV-3 ovarian
# [41] = test system: NCI/ADR-RES ovarian
# [42] = test system: HT29 colon
# [43] = test system: RXF 393 renal
# [44] = test system: KM12 colon
# [45] = test system: SF-539 CNS
# [46] = test system: UACC-62 melanoma
# [47] = test system: SNB-75 CNS
# [48] = test system: NCI-H226 lung
# [49] = test system: OVCAR-3 ovarian
# [50] = test system: MCF7 breast
# [51] = test system: SW-620 colon
# [52] = test system: SR leukemia
compound,measurement,setting,value
CC1=CSC(O)(c2ccc(Cl)cc2)c2noc(=O)n21 (configuration not stated),TGI,[1],> 100 µM
same,TGI,[2],> 100 µM
same,TGI,[3],> 100 µM
same,TGI,[4],> 100 µM
same,TGI,[5],> 100 µM
same,TGI,[6],> 100 µM
same,TGI,[7],> 100 µM
same,TGI,[8],> 100 µM
same,TGI,[9],> 100 µM
same,TGI,[10],> 100 µM
same,TGI,[11],> 100 µM
same,TGI,[12],> 100 µM
same,TGI,[13],> 100 µM
same,TGI,[14],60.3 µM
same,TGI,[15],> 100 µM
same,TGI,[16],> 100 µM
same,TGI,[17],> 100 µM
same,TGI,[18],> 100 µM
same,TGI,[19],> 100 µM
same,TGI,[20],> 100 µM
same,TGI,[21],> 100 µM
same,TGI,[22],> 100 µM
same,TGI,[23],> 100 µM
same,TGI,[24],> 100 µM
same,TGI,[25],> 100 µM
same,TGI,[26],> 100 µM
same,TGI,[27],> 100 µM
same,TGI,[28],> 100 µM
same,TGI,[29],> 100 µM
same,TGI,[30],> 100 µM
same,TGI,[31],> 100 µM
same,TGI,[32],> 100 µM
same,TGI,[33],> 100 µM
same,TGI,[34],> 100 µM
same,TGI,[35],> 100 µM
same,TGI,[36],> 100 µM
same,TGI,[37],> 100 µM
same,TGI,[38],> 100 µM
same,TGI,[39],> 100 µM
same,TGI,[40],> 100 µM
same,TGI,[41],> 100 µM
same,TGI,[42],> 100 µM
same,TGI,[43],> 100 µM
same,TGI,[44],> 100 µM
same,TGI,[45],> 100 µM
same,TGI,[46],> 100 µM
same,TGI,[47],> 100 µM
same,TGI,[48],> 100 µM
same,TGI,[49],> 100 µM
same,TGI,[50],> 100 µM
same,TGI,[51],> 100 µM
same,TGI,[52],> 100 µM
